Experimental data taken from US20020132225A1, “Compositions and methods for prolonging survival of chilled platelets” (priority 2000, published 2002).

Legend:
[1] = test system: stimulated THP-1 cells; assay: In vitro phagocytic assay: phagocytosis of chilled platelets by THP-1 cells (FACS); type: cell-based, human; details: for inhibition of phagocytosis of platelets by phagocytic cells: up to 200 mM
Description: As a first step toward evaluation of this strategy, we have developed an in vitro phagocytic assay to study the interaction between chilled platelets and mononuclear phagocytes. […] These measurements can be made with a fluorescence-activated cell sorter (FACS). […] None of these sugars had any effect on platelet aggregation induced by thrombin or by ristocetin. The latter result is particularly important, because it reflects platelet hemostatic function mediated by GPIb interaction with von Willebrand factor.
In these experiments (FIG. 11, 12, and 13) platelets were loaded with fluorescent dye CM-Orange, then incubated for 1 h at 22° C. (control), 4° C. (chilled) or exposed to UV (UV). Phagocytosis was quantified by measuring the incorporation of CM-orange-fluorescence (CM-Orange labeled platelets) into monocyte-sized cells. Bound versus ingested platelets were separated by labeling the cells after the phagocytic period with FITC-labeled anti-integrin-β3 (CD 61) antibodies, e.g., bound platelets will be FITC positive, ingested platelets will be negative. The uptake of control versus chilled platelets was compared. Chilled platelets are phagocytized because they fail to label with FITC-conjugated anti-β3 antibodies (CM-Orange positive), whereas control platelets are poorly ingested although some platelets are bound to the monocyte surface. From this experiment, the ratio of 22° C. to 4° C. ingested platelets (CM-Orange positive) can be calculated. […] These findings indicate that the cold platelet clearance differs from UV-induced clearance.

[2] = test system: OG-permeant platelets; assay: Actin filament barbed end exposure in chilled OG-permeabilized platelets; type: cell-based, human; details: OG-permeant platelets cooled
Method: We studied the biochemical and structural basis for the cold-induced shape transformation in human platelets and found it to require net actin assembly. To understand the signals involved in this process, we applied a permeabilization scheme to the cooling process that we have used to dissect PAR-1 mediated actin assembly. In this approach, platelets are first permeabilized with 0.25% octylglucoside (OG), then chilled to 4° C. for 5 min and rewarmed to 37° C. Resting platelets remained discoid at 37° C. after permeabilization with OG but changed shape when chilled. Chilled OG-permeant platelets have blebs on their surfaces and elaborate filopodial processes. […] Rewarming is required to assay filament end numbers, because we discovered that OG-treated platelets reseal in the cold, but become permeable again when rewarmed. We assayed the number of actin filament barbed ends biochemically by monitoring the acceleration of pyrene-actin polymerization rates fluorometrically in the presence and absence of CB (Hartwig, J. et al., Cell 82:643-653).

Compound | inhibition of phagocytosis of platelets by phagocytic cells [1] | effect on barbed ends exposed upon cooling [2] | other results
O=C[C@H](O)[C@@H](O)[C@@H](O)[C@H](O)CO [D-galactose] | not | – | –
O=C[C@H](O)[C@@H](O)[C@H](O)[C@H](O)CO [D-glucose] | not | – | –
Nc1nc2c(ncn2[C@@H]2O[C@H](COP(=O)(O)OP(O)(O)=S)[C@@H](O)[C@H]2O)c(=O)[nH]1 [GDPβS] | – | no effect | –
Nc1nc2c(ncn2[C@@H]2O[C@H](COP(=O)(O)OP(=O)(O)OP(O)(O)=S)[C@@H](O)[C@H]2O)c(=O)[nH]1 [GTPγS] | – | no effect | –
CC(=O)N[C@H]1C(O)O[C@H](CO)[C@@H](O)[C@@H]1O (stereo partly drawn) [N-acetyl-D-glucosamine] | not | – | –
COC1OC(CO)C(O)C(O)C1O [α-methyl-D-glycoside] | – | – | inhibition of CM-Orange pellet phagocytosis by stimulated THP-1 cells ([1]; FIG. 11-13): concentration dependent inhibition
N17cdc42: negative dominant form of cdc42 GTPase | – | failed to inhibit | –
